Results: patent US10029992B2, “Diaminotriazine compounds and their use as herbicides” (BASF SE, priority 2014, dated 2018)

What was measured:
[1] = test system: ABUTH; experiment: Greenhouse experiment, pre-emergence treatment; format: in vivo, Abutilon theophrasti; conditions: pre-emergence method
Excerpt: (§1) The culture containers used were plastic flowerpots containing loamy sand with approximately 3.0% of humus as the substrate. The seeds of the test plants were sown separately for each species.
(§2) For the pre-emergence treatment, the active ingredients, which had been suspended or emulsified in water, were applied directly after sowing by means of finely distributing nozzles. The containers were irrigated gently to promote germination and growth and subsequently covered with transparent plastic hoods until the plants had rooted. This cover caused uniform germination of the test plants, unless this had been impaired by the active ingredients.
(§3) Depending on the species, the plants were kept at 10-25° C. or 20-35° C., respectively.
(§4) The test period extended over 2 to 4 weeks. During this time, the plants were tended, and their response to the individual treatments was evaluated.
(§5) Evaluation was carried out using a scale from 0 to 100. 100 means no emergence of the plants, or complete destruction of at least the aerial moieties, and 0 means no damage, or normal course of growth. A moderate herbicidal activity is given at values of at least 60, a good herbicidal activity is given at values of at least 70, and a very good herbicidal activity is given at values of at least 85.
(§6) The plants used in the greenhouse experiments were of the following species: […]

[2] = test system: ECHCG; experiment: Greenhouse experiment, pre-emergence treatment; format: in vivo, Echinochloa crus-galli; conditions: pre-emergence method
Excerpt: as §1, §2, §3, §4, §5, §6

[3] = test system: SETFA; experiment: Greenhouse experiment, pre-emergence treatment; format: in vivo, Setaria faberi; conditions: pre-emergence method
Excerpt: (§7) The seeds of the test plants were sown separately for each species. For the pre-emergence treatment, the active ingredients, which had been suspended or emulsified in water, were applied directly after sowing by means of finely distributing nozzles. The containers were irrigated gently to promote germination and growth and subsequently covered with transparent plastic hoods until the plants had rooted. This cover caused uniform germination of the test plants, unless this had been impaired by the active ingredients. Depending on the species, the plants were kept at 10-25° C. or 20-35° C., respectively. The test period extended over 2 to 4 weeks. During this time, the plants were tended, and their response to the individual treatments was evaluated. Evaluation was carried out using a scale from 0 to 100. 100 means no emergence of the plants, or complete destruction of at least the aerial moieties, and 0 means no damage, or normal course of growth. A moderate herbicidal activity is given at values of at least 60, a good herbicidal activity is given at values of at least 70, and a very good herbicidal activity is given at values of at least 85. […] [table]

[4] = test system: AMARE; experiment: Greenhouse experiment, pre-emergence treatment; format: in vivo, Amaranthus retroflexus; conditions: pre-emergence method; for herbicidal activity against AMARA: application rate 125 g/ha
Excerpt: as §7

[5] = test system: APESV; experiment: Greenhouse experiment, pre-emergence treatment; format: in vivo, Apera spica-venti; conditions: pre-emergence method
Excerpt: as §1, §2, §3, §4, §5, §6

[6] = test system: AMARE; experiment: Greenhouse experiment, post-emergence treatment; format: in vivo, Amaranthus retroflexus; conditions: post-emergence method, application rate 125 g/ha
Experimental: (§8) The seeds of the test plants were sown separately for each species. […] For this purpose, the test plants were either sown directly and grown in the same containers, or they were first grown separately as seedlings and transplanted into the test containers a few days prior to treatment. Depending on the species, the plants were kept at 10-25° C. or 20-35° C., respectively. The test period extended over 2 to 4 weeks. During this time, the plants were tended, and their response to the individual treatments was evaluated. Evaluation was carried out using a scale from 0 to 100. 100 means no emergence of the plants, or complete destruction of at least the aerial moieties, and 0 means no damage, or normal course of growth. A moderate herbicidal activity is given at values of at least 60, a good herbicidal activity is given at values of at least 70, and a very good herbicidal activity is given at values of at least 85. […] [table]

[7] = test system: SETFA; experiment: Greenhouse experiment, post-emergence treatment; format: in vivo, Setaria faberi; conditions: post-emergence method, application rate 125 g/ha
Experimental: as §8

[8] = test system: ABUTH; experiment: Greenhouse experiment, post-emergence treatment; format: in vivo, Abutilon theophrasti; conditions: post-emergence method, application rate 125 g/ha
Experimental: as §8

## Cc1cc(C)cc(Sc2cccc(F)c2Nc2nc(N)nc(C(C)(C)F)n2)c1 [Example 2]
[1]; application rate 1000 g/ha
  herbicidal activity against ABUTH: good (a good herbicidal activity is given at values of at least 70)

## Cc1cc(C)cc(Oc2cccc(F)c2Nc2nc(N)nc(C(C)(C)F)n2)c1 [Example 5]
[2]; application rate 0.25 kg/ha
  herbicidal activity against ECHCG: very good (a very good herbicidal activity is given at values of at least 85)
[3]; application rate 0.25 kg/ha
  herbicidal activity against SETFA: very good (a very good herbicidal activity is given at values of at least 85)
[1]; application rate 0.25 kg/ha
  herbicidal activity against ABUTH: very good (a very good herbicidal activity is given at values of at least 85)

## Cc1cccc(Oc2cccc(F)c2Nc2nc(N)nc(C(C)(C)F)n2)c1 [Example 7]
[2]; application rate 0.5 kg/ha
  herbicidal activity against ECHCG: good to very good
[1]; application rate 0.5 kg/ha
  herbicidal activity against ABUTH: good to very good
[4]; application rate 0.5 kg/ha
  herbicidal activity against AMARE: good to very good

## Cc1cc(C)cc(Oc2cccc(F)c2Nc2nc(N)nc(C(C)F)n2)c1 (stereo not shown) [Example 11]
[2]; application rate 0.125 kg/ha
  herbicidal activity against ECHCG: very good (a very good herbicidal activity is given at values of at least 85)
[3]; application rate 0.125 kg/ha
  herbicidal activity against SETFA: very good (a very good herbicidal activity is given at values of at least 85)
[1]; application rate 0.125 kg/ha
  herbicidal activity against ABUTH: very good (a very good herbicidal activity is given at values of at least 85)

## CC(C)(F)c1nc(N)nc(Nc2c(F)cccc2Oc2cc(C(F)(F)F)cc(C(F)(F)F)c2)n1 [Example 12]
[3]; application rate 0.25 kg/ha
  herbicidal activity against SETFA: very good (a very good herbicidal activity is given at values of at least 85)
[5]; application rate 0.25 kg/ha
  herbicidal activity against APESV: very good (a very good herbicidal activity is given at values of at least 85)
[4]; application rate 0.25 kg/ha
  herbicidal activity against AMARE: very good (a very good herbicidal activity is given at values of at least 85)

## CC(C)(F)c1nc(N)nc(Nc2c(F)cccc2Oc2cc(Cl)cc(Cl)c2)n1 [Example 13]
[3]; application rate 0.25 kg/ha
  herbicidal activity against SETFA: very good (a very good herbicidal activity is given at values of at least 85)
[5]; application rate 0.25 kg/ha
  herbicidal activity against APESV: very good (a very good herbicidal activity is given at values of at least 85)
[4]; application rate 0.25 kg/ha
  herbicidal activity against AMARE: very good (a very good herbicidal activity is given at values of at least 85)

## Cc1cc(C)cc(Oc2cccc(F)c2Nc2nc(N)nc(C3CCCCC3)n2)c1 [Example 15]
[1]; application rate 1000 g/ha
  herbicidal activity against ABUTH: very good (a very good herbicidal activity is given at values of at least 85)

## Cc1cc(C)cc(Oc2cccc(F)c2Nc2nc(N)nc(C(C)(C)C)n2)c1 [Example 16]
[5]; application rate 2000 g/ha
  herbicidal activity against APESV: very good (a very good herbicidal activity is given at values of at least 85)
[1]; application rate 2000 g/ha
  herbicidal activity against ABUTH: very good (a very good herbicidal activity is given at values of at least 85)
[4]; application rate 2000 g/ha
  herbicidal activity against AMARE: very good (a very good herbicidal activity is given at values of at least 85)

## CC(C)(F)c1nc(N)nc(Nc2c(F)cccc2Oc2cc(F)cc(F)c2)n1 [Example 24]
[2]; application rate 0.25 kg/ha
  herbicidal activity against ECHCG: very good (a very good herbicidal activity is given at values of at least 85)
[5]; application rate 0.25 kg/ha
  herbicidal activity against APESV: very good (a very good herbicidal activity is given at values of at least 85)
[1]; application rate 0.25 kg/ha
  herbicidal activity against ABUTH: very good (a very good herbicidal activity is given at values of at least 85)

## Cc1cc(Cl)cc(Oc2cccc(F)c2Nc2nc(N)nc(C(C)(C)F)n2)c1 [Example 28]
[3]; application rate 0.25 kg/ha
  herbicidal activity against SETFA: very good (a very good herbicidal activity is given at values of at least 85)
[5]; application rate 0.25 kg/ha
  herbicidal activity against APESV: very good (a very good herbicidal activity is given at values of at least 85)
[1]; application rate 0.25 kg/ha
  herbicidal activity against ABUTH: very good (a very good herbicidal activity is given at values of at least 85)

## COC(C)c1nc(N)nc(Nc2c(F)cccc2Oc2cc(C)cc(C)c2)n1 (stereo not shown) [Example 39]
[5]; application rate 1000 g/ha
  herbicidal activity against APESV: very good (a very good herbicidal activity is given at values of at least 85)
[1]; application rate 1000 g/ha
  herbicidal activity against ABUTH: very good (a very good herbicidal activity is given at values of at least 85)

## CC(C)(F)c1nc(N)nc(Nc2c(F)c(F)cc(Oc3ccccc3)c2F)n1 [Example 42]
[2]; application rate 0.5 kg/ha
  herbicidal activity against ECHCG: good to very good
[1]; application rate 0.5 kg/ha
  herbicidal activity against ABUTH: good to very good
[4]; application rate 0.5 kg/ha
  herbicidal activity against AMARE: good to very good

## Cc1cc(C)cc(Oc2cc(F)c(F)c(Nc3nc(N)nc(C(C)(C)F)n3)c2F)c1 [Example 43]
[3]; application rate 0.5 kg/ha
  herbicidal activity against SETFA: good to very good
[1]; application rate 0.5 kg/ha
  herbicidal activity against ABUTH: good to very good
[4]; application rate 0.5 kg/ha
  herbicidal activity against AMARE: good to very good

## CC(C)(F)c1nc(N)nc(Nc2c(F)cccc2Oc2cc(F)cc(C(F)(F)F)c2)n1 [Example 53]
[6]
  herbicidal activity against AMARE: very good (a very good herbicidal activity is given at values of at least 85)
[7]
  herbicidal activity against SETFA: very good (a very good herbicidal activity is given at values of at least 85)
[8]
  herbicidal activity against ABUTH: very good (a very good herbicidal activity is given at values of at least 85)

## CC(C)(F)c1nc(N)nc(Nc2c(F)cccc2Oc2cc(F)cc(Cl)c2)n1 [Example 54]
[6]
  herbicidal activity against AMARE: very good (a very good herbicidal activity is given at values of at least 85)
[7]
  herbicidal activity against SETFA: very good (a very good herbicidal activity is given at values of at least 85)
[8]
  herbicidal activity against ABUTH: very good (a very good herbicidal activity is given at values of at least 85)

## Cc1cc(OCC(F)(F)F)cc(Oc2cccc(F)c2Nc2nc(N)nc(C(C)(C)F)n2)c1 [Example 81]
[3]; application rate 125 g/ha
  herbicidal activity against SETFA: very good (a very good herbicidal activity is given at values of at least 85)
[1]; application rate 125 g/ha
  herbicidal activity against ABUTH: good (a good herbicidal activity is given at values of at least 70)
[4]
  herbicidal activity against AMARA: very good (a very good herbicidal activity is given at values of at least 85)

## CC(C)(F)c1nc(N)nc(Nc2c(F)cccc2Oc2cc(F)cc(OC(F)F)c2)n1 [Example 82]
[3]; application rate 125 g/ha
  herbicidal activity against SETFA: very good (a very good herbicidal activity is given at values of at least 85)
[1]; application rate 125 g/ha
  herbicidal activity against ABUTH: very good (a very good herbicidal activity is given at values of at least 85)
[4]
  herbicidal activity against AMARA: very good (a very good herbicidal activity is given at values of at least 85)

## CC(C)c1cccc(Oc2cccc(F)c2Nc2nc(N)nc(C(C)(C)F)n2)c1 [Example 89]
[2]; application rate 500 g/ha
  herbicidal activity against ECHCG: very good (a very good herbicidal activity is given at values of at least 85)
[5]; application rate 500 g/ha
  herbicidal activity against APESV: very good (a very good herbicidal activity is given at values of at least 85)
[1]; application rate 500 g/ha
  herbicidal activity against ABUTH: very good (a very good herbicidal activity is given at values of at least 85)

## Cc1cc(C)cc(Oc2cccc(F)c2Nc2nc(N)nc(C3(F)CCCC3)n2)c1 [Example 96]
[2]; application rate 500 g/ha
  herbicidal activity against ECHCG: very good (a very good herbicidal activity is given at values of at least 85)
[3]; application rate 500 g/ha
  herbicidal activity against SETFA: very good (a very good herbicidal activity is given at values of at least 85)
[1]; application rate 500 g/ha
  herbicidal activity against ABUTH: very good (a very good herbicidal activity is given at values of at least 85)

## CC(C)(F)c1nc(N)nc(Nc2c(F)cccc2Oc2cccc(OC(F)(F)F)c2)n1 [Example 97]
[2]; application rate 500 g/ha
  herbicidal activity against ECHCG: very good (a very good herbicidal activity is given at values of at least 85)
[3]; application rate 500 g/ha
  herbicidal activity against SETFA: very good (a very good herbicidal activity is given at values of at least 85)
[1]; application rate 500 g/ha
  herbicidal activity against ABUTH: very good (a very good herbicidal activity is given at values of at least 85)

## Cc1cc(C)cc(Oc2cccc(C#N)c2Nc2nc(N)nc(C(C)(C)F)n2)c1 [Example 100]
[2]; application rate 250 g/ha
  herbicidal activity against ECHCG: very good (a very good herbicidal activity is given at values of at least 85)
[5]; application rate 250 g/ha
  herbicidal activity against APESV: very good (a very good herbicidal activity is given at values of at least 85)
[1]; application rate 250 g/ha
  herbicidal activity against ABUTH: good (a good herbicidal activity is given at values of at least 70)
